Biological target: T1, PI3Kγ (p101/p110γ protein) (Homo sapiens, UniProt P48736)
T1 construct: HA; made in house; host or cells: Spodoptera frugiperda (Sf9) cells, baculovirus co-infection
Experiment: PI3Kγ In Vitro Kinase Assay
Assay type: biochemical
Conditions: purified recombinant p101/p110γ with G protein β1/γ2 subunits; 20 μM ATP, 25 μM PIP2; 20 minutes at room temperature
Procedure, shortened: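 Sf9-expressed, purified human p101/p110γ (2.7 nM) was activated by Gβ1/γ2 (57.7 nM) and reacted with 20 μM ATP plus [γ-32P]ATP on PIP2 (25 μM)/PE (300 μM) micelles with 10 mM MgCl2 in HEPES buffer. Reactions ran 20 min at room temperature. Filter-captured radiolabeled PIP3 was counted by scintillation.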

T1 sequence (P48736 whole entry, species assumed): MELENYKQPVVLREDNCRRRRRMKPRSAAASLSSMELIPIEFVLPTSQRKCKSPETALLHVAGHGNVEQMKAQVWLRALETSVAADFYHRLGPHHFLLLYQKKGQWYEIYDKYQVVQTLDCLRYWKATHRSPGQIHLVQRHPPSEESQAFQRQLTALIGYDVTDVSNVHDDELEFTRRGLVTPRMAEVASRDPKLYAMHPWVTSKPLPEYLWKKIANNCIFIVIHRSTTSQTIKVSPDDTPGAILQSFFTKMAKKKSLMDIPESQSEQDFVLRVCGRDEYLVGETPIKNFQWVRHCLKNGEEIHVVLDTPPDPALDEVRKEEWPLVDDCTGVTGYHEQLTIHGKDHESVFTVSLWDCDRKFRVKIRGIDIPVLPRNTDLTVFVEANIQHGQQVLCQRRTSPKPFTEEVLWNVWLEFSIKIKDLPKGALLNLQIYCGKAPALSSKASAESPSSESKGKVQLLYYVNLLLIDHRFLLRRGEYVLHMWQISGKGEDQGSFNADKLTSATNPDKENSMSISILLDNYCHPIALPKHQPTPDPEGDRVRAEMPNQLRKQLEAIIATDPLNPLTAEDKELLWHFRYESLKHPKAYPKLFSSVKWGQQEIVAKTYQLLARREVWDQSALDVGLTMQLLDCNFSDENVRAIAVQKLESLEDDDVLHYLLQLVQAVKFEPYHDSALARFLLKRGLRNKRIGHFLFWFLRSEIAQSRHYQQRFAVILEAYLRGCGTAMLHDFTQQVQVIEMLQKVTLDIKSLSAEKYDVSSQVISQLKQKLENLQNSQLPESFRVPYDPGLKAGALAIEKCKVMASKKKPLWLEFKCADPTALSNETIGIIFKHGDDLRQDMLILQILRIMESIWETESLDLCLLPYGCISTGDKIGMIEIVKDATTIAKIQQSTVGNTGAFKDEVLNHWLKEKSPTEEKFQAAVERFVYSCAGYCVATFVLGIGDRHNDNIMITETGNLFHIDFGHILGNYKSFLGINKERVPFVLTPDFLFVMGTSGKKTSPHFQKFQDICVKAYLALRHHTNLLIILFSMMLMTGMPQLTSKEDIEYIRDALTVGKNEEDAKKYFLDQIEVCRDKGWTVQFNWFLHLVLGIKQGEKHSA
T1 sequence (Q8WYR1 whole entry partner, species assumed): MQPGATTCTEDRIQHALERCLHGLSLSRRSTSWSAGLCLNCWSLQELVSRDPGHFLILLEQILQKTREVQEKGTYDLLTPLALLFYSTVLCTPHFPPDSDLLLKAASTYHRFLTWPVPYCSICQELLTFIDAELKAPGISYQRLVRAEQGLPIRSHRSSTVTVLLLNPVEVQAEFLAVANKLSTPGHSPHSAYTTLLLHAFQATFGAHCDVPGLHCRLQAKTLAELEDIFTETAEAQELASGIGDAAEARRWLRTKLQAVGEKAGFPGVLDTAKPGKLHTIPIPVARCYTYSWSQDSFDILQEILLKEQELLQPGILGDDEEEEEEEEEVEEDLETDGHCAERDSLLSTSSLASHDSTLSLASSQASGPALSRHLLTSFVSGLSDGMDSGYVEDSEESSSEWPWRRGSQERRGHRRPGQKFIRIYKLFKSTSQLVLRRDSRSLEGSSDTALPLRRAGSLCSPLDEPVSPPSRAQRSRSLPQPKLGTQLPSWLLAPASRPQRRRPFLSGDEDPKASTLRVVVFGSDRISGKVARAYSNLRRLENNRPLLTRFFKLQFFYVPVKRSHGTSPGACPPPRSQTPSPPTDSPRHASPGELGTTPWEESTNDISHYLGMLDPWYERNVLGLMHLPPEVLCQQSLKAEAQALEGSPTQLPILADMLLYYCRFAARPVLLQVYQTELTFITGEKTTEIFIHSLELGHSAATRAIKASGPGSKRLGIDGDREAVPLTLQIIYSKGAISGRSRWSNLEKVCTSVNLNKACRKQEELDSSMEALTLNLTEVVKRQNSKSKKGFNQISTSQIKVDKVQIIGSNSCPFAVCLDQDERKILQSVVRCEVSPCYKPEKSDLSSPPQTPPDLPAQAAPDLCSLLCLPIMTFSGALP

| Compound | IC50 [nM] |
| --- | --- |
| COc1ccc(CCN2C(=O)COc3ccc(C=C4SC(=S)NC4=O)cc32)cc1 [Example 136, 4-[2-(4-Methoxy-phenyl)-ethyl]-6-(4-oxo-2-thioxo-thiazolidin-5-ylidenemethyl)-4H-1,4-benzoxazin-3-one] | 7 |
| CC(CN1C(=O)COc2ccc(C=C3SC(=S)NC3=O)cc21)c1ccccc1 (stereo not drawn) [Example 173, 6-(4-Oxo-2-thioxo-thiazolidin-5-ylidenemethyl)-4-(2-phenyl-propyl)-4H-1,4-benzoxazin-3-one] | 39 |
| O=C1NC(=O)C(=Cc2ccc3c(c2)N(CC2CCCCC2)C(=O)CO3)S1 [Example 258, 5-(4-Cyclohexylmethyl-3-oxo-3,4-dihydro-2H-1,4-benzoxazin-6-ylmethylene)-thiazolidine-2,4-dione] | 4 |
| O=C1NC(=S)SC1=Cc1ccc2c(c1)N(CCCc1ccccc1)C(=O)CO2 [Example 34, 6-(4-Oxo-2-thioxo-thiazolidin-5-ylidenemethyl)-4-(3-phenyl-propyl)-4H-1,4-benzoxazin-3-one] | 3 |
| O=C1NC(=S)SC1=Cc1ccc2c(c1)N(CC1CCCCC1)C(=O)CO2 [Example 143, 4-Cyclohexylmethyl-6-(4-oxo-2-thioxo-thiazolidin-5-ylidenemethyl)-4H-benzo[1,4]oxazin-3-one] | 35 |
| Cc1cc(CN2C(=O)COc3ccc(C=C4SC(=O)NC4=O)cc32)cc(C)n1 [Example 230, 5-[4-(2,6-Dimethyl-pyridin-4-ylmethyl)-3-oxo-3,4-dihydro-2H-1,4-benzoxazin-6-ylmethylene]-thiazolidine-2,4-dione] | 43 |
| COC(=O)c1cccc(CN2C(=O)COc3ccc(C=C4SC(=S)NC4=O)cc32)c1 [Example 8, 3-[3-Oxo-6-(4-oxo-2-thioxo-thiazolidin-5-ylidenemethyl)-2,3-dihydro-1,4-benzoxazin-4-ylmethyl]-benzoic acid methyl ester] | 81 |
| COC(=O)c1cc(C)cc(CN2C(=O)COc3ccc(C=C4SC(=S)NC4=O)cc32)c1 [Example 118] | 23 |
| C[C@@H]1Oc2ccc(C=C3SC(=S)NC3=O)cc2NC1=O [Example 13, (S)-2-Methyl-6-(4-oxo-2-thioxo-thiazolidin-5-ylidenemethyl)-4H-1,4-benzoxazin-3-one] | 745 |
| O=C1NC(=S)SC1=Cc1ccc2c(c1)N(Cc1cc(C(F)(F)F)cc(C(F)(F)F)c1)C(=O)CO2 [Example 29, 4-(3,5-Bis-trifluoromethyl-benzyl)-6-(4-oxo-2-thioxo-thiazolidin-5-ylidenemethyl)-4H-1,4-benzoxazin-3-one] | 31 |
| O=C1NC(=S)SC1=Cc1ccc2c(c1)N(Cc1cc(C(F)(F)F)cc(C(F)(F)F)c1)C(=O)CO2 [Example 185, 4-(3,5-Bis-trifluoromethyl-benzyl)-6-(4-oxo-2-thioxo-thiazolidin-5-ylidenemethyl)-4H-1,4-benzoxazin-3-one] | 102 |
| O=C1NC(=S)SC1=Cc1ccc2c(c1)N(Cc1ccc(Cl)c(Cl)c1)C(=O)CO2 [Example 178, 4-(3,4-Dichloro-benzyl)-6-(4-oxo-2-thioxo-thiazolidin-5-ylidenemethyl)-4H-1,4-benzoxazin-3-one] | 4 |
| O=C1NC(=S)SC1=Cc1ccc2c(c1)N(Cc1ccccc1)C(=O)CO2 [Example 4, 4-Benzyl-6-(4-oxo-2-thioxo-thiazolidin-5-ylidenemethyl)-4H-1,4-benzoxazin-3-one] | 23 |
| CC1CC(C)CN(CCCN2C(=O)COc3c(F)cc(C=C4SC(=S)NC4=O)cc32)C1 (stereo not drawn) [Example 244, 4-[3-(3,5-Dimethyl-piperidin-1-yl)-propyl]-8-fluoro-6-(4-oxo-2-thioxo-thiazolidin-5-ylidenemethyl)-4H-benzo[1,4]oxazin-3-one] | 185 |
| 4-(3-Chloro-4-fluoro-benzyl)-8-fluoro-6-(4-oxo-2-thioxo-thiazolidin-5-ylidenemethyl)-4H-benzo[1,4]oxazin-3-one [Example 309] | 2 |
| CC(C)(C)c1cc(CN2C(=O)COc3ccc(C=C4SC(=S)NC4=O)cc32)cc(C(N)=O)c1 [Example 216, 3-tert-Butyl-5-[3-oxo-6-(4-oxo-2-thioxo-thiazolidin-5-ylidenemethyl)-2,3-dihydro-1,4-benzoxazin-4-ylmethyl]-benzamide] | 26 |
| CN1CCN(Cc2cc(CN3C(=O)COc4ccc(C=C5SC(=S)NC5=O)cc43)cc(C(C)(C)C)c2)CC1 [Example 222, 4-[3-tert-Butyl-5-(4-methyl-piperazin-1-ylmethyl)-benzyl]-6-(4-oxo-2-thioxo-thiazolidin-5-ylidenemethyl)-4H-1,4-benzoxazin-3-one] | 6 |
| O=C1NC(=S)SC1=Cc1ccc2c(c1)N(Cc1ccc(C=Cc3ccccc3)cc1)C(=O)CO2 [Example 162, 6-(4-Oxo-2-thioxo-thiazolidin-5-ylidenemethyl)-4-(4-styryl-benzyl)-4H-1,4-benzoxazin-3-one] | 53 |
| CC(C)(C)c1cc(CN2C(=O)COc3ccc(C=C4SC(=S)NC4=O)cc32)cc(C(=O)NCC(=O)O)c1 [Example 60, {3-tert-Butyl-5-[3-oxo-6-(4-oxo-2-thioxo-thiazolidin-5-ylidenemethyl)-2,3-dihydro-1,4-benzoxazin-4-ylmethyl]-benzoylamino}-acetic acid] | 26 |
| Cc1cc(CN2C(=O)COc3ccc(C=C4SC(=S)NC4=O)cc32)cc(-c2ccoc2)c1 [Example 115, 4-(3-Furan-3-yl-5-methyl-benzyl)-6-(4-oxo-2-thioxo-thiazolidin-5-ylidenemethyl)-4H-benzo[1,4]oxazin-3-one] | 15 |

The remaining lines, values ahead:

| IC50 [nM] | Compound |
| --- | --- |
| 33 | Cc1cc(CN2C(=O)COc3ccc(C=C4SC(=S)NC4=O)cc32)c(C(F)(F)F)o1 [Example 324, 4-(5-Methyl-2-triflouromethyl-furan-3-ylmethyl)-6-(4-oxo-2-thioxo-thiazolidin-5-ylidenemethyl)-4H-benzo[1,4]oxazin-3-one] |
| 13 | CC(C)(O)c1cccc(CN2C(=O)COc3ccc(/C=C4\SC(=S)NC4=O)cc32)c1 [Example 282, 4-[3-(1-Hydroxy-1-methyl-ethyl)-benzyl]-6-[4-oxo-2-thioxo-thiazolidin-(5Z)-ylidenemethyl]-4H-benzo[1,4]oxazin-3-one; Compound with ethane-1,2-diamine] |
| 12 | CC(C)(O)c1cc(CN2C(=O)COc3c(F)cc(C=C4SC(=S)NC4=O)cc32)ccc1F [Example 302, 8-Fluoro-4-[4-fluoro-3-(1-hydroxy-1-methyl-ethyl)-benzyl]-6-(4-oxo-2-thioxo-thiazolidin-5-ylidenemethyl)-4H-benzo[1,4]oxazin-3-one; Compound with Ethane-1,2-diamine] |
| 12 | O=C1NC(=O)C(=Cc2ccc3c(c2)N(Cc2ccoc2)C(=O)CO3)S1 [Example 338, 5-(4-Furan-3-ylmethyl-3-oxo-3,4-dihydro-2H-1,4-benzoxazin-6-ylmethylene)-thiazolidine-2,4-dione] |
| 4640 | C/C(=C1/SC(=S)NC1=O)c1ccc2c(c1)NC(=O)CO2 [Example 268, 6-{1-[4-Oxo-2-thioxo-thiazolidin-(5Z)-ylidene]-ethyl}-4H-benzo[1,4]oxazin-3-one] |
| 80 | Cc1cc(CN2C(=O)COc3ccc(C=C4SC(=S)NC4=O)cc32)n(C)n1 [Example 339, 4-(2,5-Dimethyl-2H-pyrazol-3-ylmethyl)-6-(4-oxo-2-thioxo-thiazolidin-5-ylidenemethyl)-4H-1,4-benzoxazin-3-one] |
| 11 | O=C1NC(=S)SC1=Cc1cc(F)c2c(c1)N(Cc1ccc(F)c(C(F)(F)F)c1)C(=O)CO2 [Example 292, 8-Fluoro-4-(4-fluoro-3-trifluoromethyl-benzyl)-6-(4-oxo-2-thioxo-thiazolidin-5-ylidenemethyl)-4-H-benzo[1,4]oxazin-3-one] |
| 8 | CC(C)(O)c1cc(CN2C(=O)COc3ccc(C=C4SC(=S)NC4=O)cc32)ccc1F [Example 304, 4-[4-Fluoro-3-(1-hydroxy-1-methyl-ethyl)-benzyl]-6-(4-oxo-2-thioxo-thiazolidin-5-ylidenemethyl)-4H-benzo[1,4]oxazin-3-one; Compound with Ethane-1,2-diamine] |
| 8 | O=C1NC(=S)S/C1=C\c1ccc2c(c1)N(Cc1ccc(C(=O)N3CCOCC3)cc1)C(=O)CO2 [Example 281, 4-[4-(Morpholine-4-carbonyl)-benzyl]-6-[4-oxo-2-thioxo-thiazolidin-(5Z)-ylidenemethyl]-4H-benzo[1,4]oxazin-3-one] |
| 11 | COC(C)(C)c1cc(CN2C(=O)COc3ccc(/C=C4\SC(=S)NC4=O)cc32)cc(C(C)(C)C)c1 [Example 283, 4-[3-tert-Butyl-5-(1-methoxy-1-methyl-ethyl)-benzyl]-6-[4-oxo-2-thioxo-thiazolidin-(5Z)-ylidenemethyl]-4H-benzo[1,4]oxazin-3-one] |
| 16 | O=C1NC(=S)S/C1=C\c1ccc2c(c1)N(Cc1ccc(I)cc1)C(=O)CO2 [Example 287, 4-(4-Iodo-benzyl)-6-[4-oxo-2-thioxo-thiazolidin-(5Z)-ylidenemethyl]-4H-benzo[1,4]oxazin-3-one] |
| 15 | CC(C)(O)c1cc(Cl)cc(CN2C(=O)COc3c(F)cc(C=C4SC(=S)NC4=O)cc32)c1 [Example 293, 4-[3-Chloro-5-(1-hydroxy-1-methyl-ethyl)-benzyl]-8-fluoro-6-(4-oxo-2-thioxo-thiazoldin-5-ylidenemethyl)-4H-benzo[1,4]oxazin-3-one; Compound with Ethane-1,2-diamine] |
| 3 | O=C1NC(=S)SC1=Cc1ccc2c(c1)N(Cc1ccc(Cl)s1)C(=O)CO2 [Example 322, 4-(5-Chloro-thiophen-2-ylmethyl)-6-(4-oxo-2-thioxo-thiazolidin-5-ylidenemethyl)-4H-benzo[1,4]oxazin-3-one] |
